What all share (experiment): Liquid medium dilution method (MIC)
Holding throughout (format): cell-based

In experiment [1] the test system is Streptococcus agalactiae groupe B 02B1HT1. The settings on record: 24 h incubation at 37°C, read-out: concentrations minimales inhibitrices (C.M.I.). As to the method:
(§1) Méthode des dilutions en milieu liquide
(§2) On prépare une série de tubes dans lesquels on répartit une même quantité de milieu nutritif stérile. On distribue dans chaque tube des quantités croissantes du produit à étudier, puis chaque tube est ensemencé avec une souche bactérienne. Après incubation de vingt-quatre heures à l'étuve à 37°C, l'inhibition de la croissance est appréciée par transillumination, ce qui permet de déterminer les concentrations minimales inhibitrices (C.M.I.) exprimées en microgrammes/cm^3.

For experiment [2], the system named is Streptococcus sanguis. The settings on record: 24 h incubation at 37°C, read-out: concentrations minimales inhibitrices (C.M.I.). The procedure:
as §1, §2

Experiment [3] deals with Streptococcus pneumoniae 030RO1i. To be noted: 24 h incubation at 37°C, read-out: concentrations minimales inhibitrices (C.M.I.). The procedure: as §1, §2
The subject of experiment [4] is Streptococcus agalactiae groupe B 02B1SJ1. The settings on record: 24 h incubation at 37°C, read-out: concentrations minimales inhibitrices (C.M.I.). The procedure:
as §1, §2

Experiment [5] has as its system Streptococcus mitis 02mitCB1. To be noted: 24 h incubation at 37°C, read-out: concentrations minimales inhibitrices (C.M.I.). As to the method:
as §1, §2

The subject of experiment [6] is Streptococcus pneumoniae 030SJ1c. To be noted: 24 h incubation at 37°C, read-out: concentrations minimales inhibitrices (C.M.I.). The procedure:
as §1, §2

For experiment [7], the system named is Streptococcus pneumoniae 032UC1. The settings on record: 24 h incubation at 37°C, read-out: concentrations minimales inhibitrices (C.M.I.). As to the method:
as §1, §2

For experiment [8], the system named is Streptococcus faecalis groupe D 02D2UC1. To be noted: Enterococcus faecalis, 24 h incubation at 37°C, read-out: concentrations minimales inhibitrices (C.M.I.). As to the method:
as §1, §2

In experiment [9] the test system is Streptococcus pneumoniae 030GR20. The settings on record: 24 h incubation at 37°C, read-out: concentrations minimales inhibitrices (C.M.I.). The procedure:
as §1, §2

The test system of experiment [10] is Streptococcus pyogenes groupe A 02A1UC1. To be noted: 24 h incubation at 37°C, read-out: concentrations minimales inhibitrices (C.M.I.). As to the method: as §1, §2
For experiment [11], the system named is Streptococcus pneumoniae 030PW23c. The settings on record: 24 h incubation at 37°C, read-out: concentrations minimales inhibitrices (C.M.I.). The procedure:
as §1, §2

For experiment [12], the system named is Staphylococcus aureus 011UC4. The settings on record: 24 h incubation at 37°C, read-out: concentrations minimales inhibitrices (C.M.I.). As to the method: as §1, §2
The test system of experiment [13] is Streptococcus faecium groupe D 02D3HT1. To be noted: Enterococcus faecium, 24 h incubation at 37°C, read-out: concentrations minimales inhibitrices (C.M.I.). The procedure: as §1, §2

Each structure is given as a SMILES string. ≈ marks a conversion by molar mass, not a printed value. A value given as a limit tells only on which side of the number the result lay.

`CC[C@H]1OC(=O)[C@H](C)C(=O)[C@H](C)[C@@H](O[C@@H]2O[C@H](C)C[C@H](N(C)C)[C@H]2O)[C@](C)(OC)C[C@@H](C)/C(=N\OC2CCCNC2)[C@H](C)[C@H]2N(NCCCc3ccnc4ccccc34)C(=O)O[C@]12C` (stereo partly shown) [Exemple 3]: the MIC came to 0.08 µg/mL (≈ 0.0894 µM) in experiment [1]; 0.08 µg/mL (≈ 0.0894 µM) in [2]; 0.08 µg/mL (≈ 0.0894 µM) in experiment [3]; 0.08 µg/mL (≈ 0.0894 µM) in experiment [4]; 0.04 µg/mL (≈ 0.0447 µM) in [5]; 0.15 µg/mL (≈ 0.168 µM) in experiment [6]. The MIC in experiment [7] was no more than 0.02 µg/mL; in experiment [8], 0.08 µg/mL (≈ 0.0894 µM); in [9], 0.04 µg/mL (≈ 0.0447 µM); in experiment [10], 0.08 µg/mL (≈ 0.0894 µM); in [11], 0.08 µg/mL (≈ 0.0894 µM); in experiment [12] it was 0.3 µg/mL (≈ 0.335 µM). Also, the MIC in [13] stood at 0.08 µg/mL (≈ 0.0894 µM).

The record behind these values is patent publication EP0968222B1, “NOVEL ERYTHROMYCIN DERIVATIVES, METHOD OF PREPARATION AND APPLICATION AS MEDICINES” (Aventis Pharma S.A., priority 1997, dated 1998).
